Where two headings read alike, the source gives them in different places.
Tests used:
[1] = system: murine CT26 colon cancer cells; test: MTT cytotoxicity assay in CT26 cells; assay type: cell-based
Experimental: (§1) Cells were additionally incubated with 5-fold equimolar concentrations of ascorbic acid to increase the reduction rate of the compounds. Cell viability was measured by the MTT-based vitality assay (EZ4U; Biomedica, Vienna, Austria), following the manufacturer’s recommendations.

[2] = system: VM7 melanoma cancer cells; test: MTT cytotoxicity assay in VM7 cells; assay type: cell-based, human; details: 72 h
Procedure, shortened: (§2)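 Cells seeded at 3500–6000/well, recovered 24 h, then exposed to compounds for 48 or 72 h alongside 5-fold equimolar ascorbic acid to boost compound reduction. Viability measured by MTT-based EZ4U assay.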

SKOV3 cell lysates = test: Reduction and 1-MDT release in SKOV3 lysates; assay type: in vitro ADME, human; details: 100 μM, 37 °C
Experimental: SKOV3 cells were grown in four T225 […] cell culture flasks to reach a high cell number. On the day of cell lysate isolation, cells were washed with PBS, scraped from the surface, and centrifuged. Each cell pellet was lysed in ∼160 μL lysis buffer (15 mM NaCl 0.5% Triton X, ultrapure) and incubated on ice for 1 h. The samples were then centrifuged for 15 min at 14,000 rpm (4 °C), and the cleared lysate was pooled and kept at −80 °C until analysis. Cell lysates were treated with 2 mM stock solutions of respective complexes in 4% DMF and phosphate buffer (100 mM, pH 7.4) to obtain a final compound concentration of 100 μM and incubated at 37 °C. After 0, 4, 24, and 72 h, three volume equivalents of cold MeOH were added to sample aliquots. Samples were stored at 4 °C for 10 min and centrifuged (15,080g, 4 °C, 10 min). LC–MS analysis of the supernatant was performed on an Agilent 1260 Infinity system using a Waters Atlantis T3 column (150 mm × 4.6 mm) and absorption detection at 230 nm, coupled to a Bruker amaZon SL ESI-IT mass spectrometer. Milli-Q water, containing 0.1% formic acid, and acetonitrile, containing 0.1% formic acid, were used as eluents. A gradient of 1–99% acetonitrile in 20 min was used.

[3] = system: human HCT116 colon cancer cells; test: MTT cytotoxicity assay in HCT116 cells; assay type: cell-based
Experimental: as §1

[4] = system: human hepatic cell line (WRL68); test: MTT cytotoxicity assay in non-malignant WRL68 cells; assay type: cell-based; details: 72 h
Procedure, shortened: as §2

[5] = UHPLC reduction experiments with L-ascorbic acid; assay type: physicochemical; details: 1 mM complex, 10-fold excess AA, phosphate buffer pH 7.4, 1% DMF, 20 °C
Experimental: The platinum(IV)–succinimide complexes were dissolved in 2% DMF in phosphate buffer (500 mM, pH 7.4) to a final concentration of 2 mM. The solutions were then mixed 1:1 with a 20 mM stock of L-ascorbic acid in phosphate buffer (500 mM, pH 7.4) to obtain final concentrations of 1 mM complex, 10 mM L-ascorbic acid, and 1% DMF. The samples were incubated at 20 °C and measured on a Dionex UltiMate 3000 RS UPLC system with a Waters Acquity UPLC BEH C18 column (3 × 50 mm, pore size 1.7 μm) and absorption detection at 220 nm. Data points were taken at t = 0 and every 30 min for 6 h.

[6] = log D7.4 determination by shake flask method and ICP-MS; assay type: physicochemical; details: n-octanol/phosphate buffer pH 7.4, Pt by ICP-MS
Experimental: 50 mM stock solutions of the succinimide complexes in DMF were diluted in phosphate buffer (20 mM, pH 7.4, pre-saturated with n-octanol) to a final concentration of 50 μM drug and 0.1% DMF. The platinum content of these aqueous solutions was measured by ICP–MS (see above). The solutions were mixed 1:1 with n-octanol and shaken on a 360° rotatable rack for 3 h. The solutions were centrifuged for 5 min (860g, RT), the aqueous layers were carefully removed, and their Pt content was measured by ICP–MS. Experiments were performed and measured in duplicates, and averages were used for further calculations. log D7.4 values were calculated by the following equation [drawing 1]

[7] = system: human embryonic kidney cells (HEK293); test: MTT cytotoxicity assay in non-malignant HEK293 cells; assay type: cell-based; details: 72 h
Procedure, shortened: as §2

albumin = molecular target: T1, albumin (Bos taurus, UniProt P02769); test: SEC-ICP-MS albumin binding and serum stability in fetal calf serum; assay type: in vitro ADME; details: FCS + 150 mM phosphate buffer pH 7.4, 37 °C
T1 construct: FCS was purchased from Sigma-Aldrich and buffered with 150 mM phosphate buffer (pH 7.4); tissue Sigma-Aldrich; host or cells: fetal calf serum
Experimental: FCS was purchased from Sigma-Aldrich and buffered with 150 mM phosphate buffer (pH 7.4) to guarantee a stable pH. The maleimide-bearing platinum(IV) complexes were dissolved in 10% DMF in 150 mM phosphate buffer (pH 7.4) to 1 mM and diluted 1:10 in serum to obtain a final concentration of 100 μM. The samples were then incubated in the autosampler at 37 °C for 24 h and analyzed every 1 h. Between each sample, a pure water blank was measured. For SEC–ICP–MS measurements, an Agilent 1260 Infinity system coupled to an Agilent 7800 ICP–MS equipped with a dynamic reaction cell was used. Oxygen (purity 5.5, Messer Austria GmbH, Gumpoldskirchen, Austria) was used as reaction gas.

human SKOV3 cancer cells = test: MTT cytotoxicity assay in SKOV3 cells; assay type: cell-based; details: 72 h incubation
SKOV3 cancer cells = test: Long-term cytotoxicity assay (crystal violet) in SKOV3 cells; assay type: cell-based, human; details: 168 h, crystal violet stain, mean ± SD
Procedure, shortened: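 SKOV3 cells were treated for 168 h at indicated concentrations, in duplicate, after 24 h recovery. Cells were methanol-fixed and crystal violet-stained; colony formation was assessed by fluorescence imaging at 610/30 nm and quantified by image analysis.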

[8] = 48 h incubation, with 5 equiv AA, read-out: CT26 IC50 values +AA, mean ± SD
[9] = 48 h incubation, without AA, read-out: CT26 IC50 values, mean ± SD
[10] = 72 h incubation, with 5 eq. AA, read-out: CT26 IC50 values + 5 eq. AA, mean
[11] = 72 h incubation, without AA, read-out: CT26 IC50 values, mean
[12] = 48 h incubation, with 5 equiv AA, read-out: HCT116 IC50 values +AA, mean ± SD
[13] = 48 h incubation, without AA, read-out: HCT116 IC50 values, mean ± SD
[14] = 72 h incubation, with 5 eq. AA, read-out: HCT116 IC50 values + 5 eq. AA, mean
[15] = 72 h incubation, without AA, read-out: HCT116 IC50 values, mean
[16] = with 5 eq. AA, read-out: SKOV3 IC50 values + 5 eq. AA, mean
[17] = without AA, read-out: SKOV3 IC50 values, mean

T1 sequence (P02769 25-607): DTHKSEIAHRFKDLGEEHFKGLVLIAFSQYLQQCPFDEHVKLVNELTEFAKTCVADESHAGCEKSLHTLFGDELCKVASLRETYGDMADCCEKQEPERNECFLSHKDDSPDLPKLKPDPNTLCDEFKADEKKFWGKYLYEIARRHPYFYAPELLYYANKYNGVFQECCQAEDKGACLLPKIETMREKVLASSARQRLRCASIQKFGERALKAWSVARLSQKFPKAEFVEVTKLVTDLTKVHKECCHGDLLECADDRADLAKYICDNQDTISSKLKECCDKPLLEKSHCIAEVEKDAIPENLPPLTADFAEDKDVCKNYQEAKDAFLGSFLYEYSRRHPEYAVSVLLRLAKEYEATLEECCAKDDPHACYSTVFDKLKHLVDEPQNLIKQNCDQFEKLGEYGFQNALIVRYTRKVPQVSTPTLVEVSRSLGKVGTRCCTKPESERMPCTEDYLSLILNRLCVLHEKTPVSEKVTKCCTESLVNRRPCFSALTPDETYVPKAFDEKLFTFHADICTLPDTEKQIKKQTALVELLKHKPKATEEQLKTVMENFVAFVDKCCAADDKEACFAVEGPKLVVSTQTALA

SMILES	IC50 [1, 8] [µM]	IC50 [1, 9] [µM]	IC50 [1, 10] [µM]	IC50 [1, 11] [µM]	IC50 [2] [µM]	1-MDT release after 72 h (SKOV3 cell lysates) [%]	IC50 [3, 12] [µM]	IC50 [3, 13] [µM]	IC50 [3, 14] [µM]	IC50 [3, 15] [µM]	IC50 [4] [µM]	time until complex completely reduced [5] [h]	log D7.4 [6]	IC50 [7] [µM]	albumin binding in serum (in words) (albumin)	IC50 (human SKOV3 cancer cells; [16]) [µM]	IC50 (human SKOV3 cancer cells; [17]) [µM]	IC50 (SKOV3 cancer cells) [µM]	further results
Cn1cc(CC([NH3+])C(=O)[O][Pt]23([O]C(=O)NCCCCCN4C(=O)CCC4=O)([NH]C4CCCCC4[NH]2)[O]C(=O)C(=O)[O]3)c2ccccc21.O=C([O-])C(F)(F)F [SucCa/IdoEs, (OC-6-34)-[(R)-2-Ammonio-3-(1-methyl-1H-indol-3-yl)propanoato][(1R,2R)-1,2-cyclohexanediamino][5-(2,5-dioxo-2,5-dihydro-1H-pyrrolidin-1-yl)pentylcarbamato]oxalatoplatinum(IV) Trifluoroacetate]	10.8 ± 1.04	60.1 ± 6.49	16.9	31.9	> 100	~100	7.36 ± 1.14	26 ± 3.21	5.35	7.23	76.4	≤ 2	–0.16	33.2	significant binding to albumin (tR ~4 min) could be observed for any of the compounds	> 100	> 100	18.4 ± 3	
Cn1cc(C[C@@H](NC(=O)[O][Pt]2([O]C(=O)CCCCCN3C(=O)CCC3=O)[O]C(=O)C(=O)[O]2)C(=O)O)c2ccccc21.N[C@@H]1CCCC[C@H]1N [SucEs/IdoCa]	26.7 ± 0.75	> 100	46	90.5	> 100		35.4 ± 6.54	> 100	20.8	82.1	> 100		–2.02	77.5	significant binding to albumin (tR ~4 min) could be observed for any of the compounds	> 100	> 100	53.1 ± 4.5	ratio (IC50 without AA / with AA), CT26 ([1]; 48 h): ≥3; ratio (IC50 without AA / with AA), CT26 ([1]; 72 h): 1.97; still present as platinum(IV) species after 72 h (SKOV3 cell lysates): ~50%; ratio (IC50 without AA / with AA), HCT116 ([3]; 48 h): ≥2.8; ratio (IC50 without AA / with AA), HCT116 ([3]; 72 h): 3.94; complex intact after 6 h [5]: 90%
Cn1cc(C[C@@H]([NH3+])C(=O)[O][Pt]2([O]C(=O)CCCCCN3C(=O)CCC3=O)[O]C(=O)C(=O)[O]2)c2ccccc21.N[C@@H]1CCCC[C@H]1N.O=C([O-])C(F)(F)F [SucEs/IdoEs, (OC-6-44)-[(R)-2-Ammonio-3-(1-methyl-1H-indol-3-yl)propanoato][(1R,2R)-1,2-cyclohexanediamino][6-(2,5-dioxopyrrolidin-1-yl)hexanoato]oxalatoplatinum(IV) Trifluoroacetate]		91.5 ± 3.84	18.1	44.9	> 100	~100	6.94 ± 0.33	22.8 ± 1.15	4.89	5.45	81.7	≤ 2	–0.30	44.2	significant binding to albumin (tR ~4 min) could be observed for any of the compounds	> 100	> 100	19.4 ± 1.2	

Source: publication PMC8404199, “Structure–Activity Relationships of Triple-Action Platinum(IV) Prodrugs with Albumin-Binding Properties and Immunomodulating Ligands” (Journal of Medicinal Chemistry, 2021)
